Assay results reported in US20230012570A1, “BICYCLIC COMPOUND USED AS SELECTIVE ANDROGEN RECEPTOR MODULATOR” (MEDSHINE DISCOVERY INC., priority 2019, published 2023).

Molecular target: T1, CYP2D6 (Homo sapiens, UniProt P10635)
T1 construct: Mixed human liver microsomes (HLM) were purchased from Corning Inc; tissue Corning Inc. or XenoTech, LLC. or other suppliers; host or cells: pooled human liver microsomes
Assay: Human liver microsomal CYP inhibition experiment, CYP2D6
Format: in vitro ADME
Description: Experiment Embodiment 4: Human Liver Microsomal CYP Inhibition Experiment
The inhibitory effects of the test compound 3A and VK5211 on the activities of human liver microsomal cytochrome P450 isozymes (CYP1A2, CYP2C9, CYP2C19, CYP2D6 and CYP3A4) were determined.
Mixed human liver microsomes (HLM) were purchased from Corning Inc. (Steuben, New York, USA) or XenoTech, LLC. (Lenexa, Kans., USA) or other suppliers, and were stored at a temperature below −60° C. before use.
First, the test compound (10.0 mM) was gradient diluted to prepare working solution (100×final concentration), and the concentrations of the working solution were: 5.00, 1.50, 0.500, 0.150, 0.0500, 0.0150, 0.00500 mM, and a working solution of each positive inhibitor of P450 isozymes (CYP1A2, CYP2C9, CYP2C19, CYP2D6, and CYP3A4) and a specific substrate mixture thereof (5 in 1) were prepared at the same time; human liver microsomes stored in a refrigerator at a temperature lower than −60° C. were put on ice to thaw, and when all the human liver microsomes were dissolved, the microsomes were diluted with potassium phosphate buffer (PB) to prepare a working solution of a certain concentration (0.253 mg/mL). […] The concentration of metabolites produced by the probe substrate in the sample was determined by liquid chromatography-tandem mass spectrometry (LC-MS/MS) method. […]

T1 sequence (P10635 whole entry): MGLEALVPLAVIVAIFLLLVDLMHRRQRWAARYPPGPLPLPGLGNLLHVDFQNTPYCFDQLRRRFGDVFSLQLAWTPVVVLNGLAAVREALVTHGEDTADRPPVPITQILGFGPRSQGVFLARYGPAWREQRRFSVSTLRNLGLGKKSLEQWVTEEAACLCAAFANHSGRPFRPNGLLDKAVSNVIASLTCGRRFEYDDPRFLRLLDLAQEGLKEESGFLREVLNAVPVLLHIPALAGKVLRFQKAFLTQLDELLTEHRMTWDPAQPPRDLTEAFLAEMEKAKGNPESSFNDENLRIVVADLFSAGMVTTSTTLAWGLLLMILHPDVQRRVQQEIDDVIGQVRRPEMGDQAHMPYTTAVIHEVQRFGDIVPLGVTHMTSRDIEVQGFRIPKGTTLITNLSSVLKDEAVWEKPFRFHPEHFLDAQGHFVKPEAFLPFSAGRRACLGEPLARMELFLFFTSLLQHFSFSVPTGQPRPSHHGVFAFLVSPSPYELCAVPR

## N#Cc1ccc(N2CC3CC3C2C(O)C(F)(F)F)cc1Cl (single isomer, unassigned) [Compound 3A]
  IC50: > 50 µM
